In ChEMBL document CHEMBL1201862, “PubChem BioAssay data set” (2004):
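Method: 48-hour compound exposure of cells in 96-well plates, five concentrations, linear interpolation of endpoints. At the GI50, growth is halved.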 The source made the active and inactive calls. No stated cut-off is given here; in the data, active = GI50 up to about 1.1 µM and inactive = higher.

Tests used:
Test in all cases: DTP human tumour cell line panel, 48 h
A498 = tested on: A498
CAKI-1 = tested on: CAKI-1
CCRF-CEM = tested on: CCRF-CEM
COLO 205 = tested on: COLO 205
HOP-92 = tested on: HOP-92
Hs-578T = tested on: Hs-578T
IGROV-1 = tested on: IGROV-1
KM12 = tested on: KM12
M14 = tested on: M14
OVCAR-8 = tested on: OVCAR-8
PC-3 = tested on: PC-3
SF-295 = tested on: SF-295
SK-MEL-2 = tested on: SK-MEL-2
SK-MEL-5 = tested on: SK-MEL-5
SNB-19 = tested on: SNB-19
SNB-75 = tested on: SNB-75
SR = tested on: SR
U-251 = tested on: U-251
BT-549 = tested on: BT-549

Compound | GI50 (A498) | GI50 (CAKI-1) | GI50 (CCRF-CEM) | GI50 (COLO 205) | GI50 (HOP-92) | GI50 (Hs-578T) | GI50 (IGROV-1) | GI50 (KM12) | GI50 (M14) | GI50 (OVCAR-8) | GI50 (PC-3) | GI50 (SF-295) | GI50 (SK-MEL-2) | GI50 (SK-MEL-5) | GI50 (SNB-19) | GI50 (SNB-75) | GI50 (SR) | GI50 (U-251) | GI50 (BT-549)
O=Cc1ccc2c(c1)CC1(C2)Cc2ccc(C=O)cc2C1 | 28.1 µM (inactive) | 44.9 µM (inactive) | 1.68 µM (inactive) | 30.3 µM (inactive) | 20.6 µM (inactive) | 3.26 µM (inactive) | 21.5 µM (inactive) | 28.1 µM (inactive) | 6.14 µM (inactive) | 7.26 µM (inactive) | 17.1 µM (inactive) | > 45.2 µM (inactive) | 11.8 µM (inactive) | 5.28 µM (inactive) | 25.1 µM (inactive) | 61.8 µM (inactive) | 2.67 µM (inactive) | 8.69 µM (inactive) | –
NCCCN1CCN(CCCNc2ccc3ncn4c5ccccc5c(=O)c2c34)CC1 | 1.69 µM (inactive) | 1.14 µM (inactive) | 1.41 µM (inactive) | 0.481 µM (active) | 1.36 µM (inactive) | 3.16 µM (inactive) | 1.04 µM (active) | 3.29 µM (inactive) | 2.79 µM (inactive) | 1.87 µM (inactive) | 1.69 µM (inactive) | 3.71 µM (inactive) | 2.8 µM (inactive) | 0.791 µM (active) | 0.887 µM (active) | 3.13 µM (inactive) | 1.21 µM (inactive) | 1.02 µM (active) | –
C#CC(O)/C=C/C(O)CCCC(O)CC#CC(O)C#CCCCCC(O)/C=C/CCCC(=O)CCCCCCCCCCCCCCCC(O)C(O)C#CC(=O)O (centres undefined) | – | > 25 µM (inactive) | > 25 µM (inactive) | > 25 µM (inactive) | > 25 µM (inactive) | > 25 µM (inactive) | 8.55 µM (inactive) | > 25 µM (inactive) | > 25 µM (inactive) | > 25 µM (inactive) | > 25 µM (inactive) | > 25 µM (inactive) | > 25 µM (inactive) | > 25 µM (inactive) | > 25 µM (inactive) | > 25 µM (inactive) | > 25 µM (inactive) | > 25 µM (inactive) | –
O=C(Nc1nc2ccc([N+](=O)[O-])cc2s1)c1cc([N+](=O)[O-])ccc1Cl | 2.21 µM (inactive) | 4.51 µM (inactive) | – | 1.68 µM (inactive) | 0.675 µM (active) | – | – | 3.4 µM (inactive) | – | 2.85 µM (inactive) | – | 3.4 µM (inactive) | – | 1.41 µM (inactive) | – | 2.22 µM (inactive) | – | 2.95 µM (inactive) | 2.24 µM (inactive)
C=CC[C@@H]1C(=O)[C@@]2(O[Si](C(C)C)(C(C)C)C(C)C)CC[C@@H]1C[C@H]2NC(=O)OCC(Cl)(Cl)Cl | > 100 µM (inactive) | 59.2 µM (inactive) | 60 µM (inactive) | > 100 µM (inactive) | – | > 100 µM (inactive) | – | > 100 µM (inactive) | > 100 µM (inactive) | > 100 µM (inactive) | 32.9 µM (inactive) | 5.35 µM (inactive) | 60 µM (inactive) | > 100 µM (inactive) | > 100 µM (inactive) | > 100 µM (inactive) | 35.4 µM (inactive) | > 100 µM (inactive) | –
O=C(Cn1cc(-c2ccccc2)nn1)NC1CCCC1 | – | > 100 µM (inactive) | > 100 µM (inactive) | > 100 µM (inactive) | > 100 µM (inactive) | – | > 100 µM (inactive) | > 100 µM (inactive) | > 100 µM (inactive) | > 100 µM (inactive) | > 100 µM (inactive) | > 100 µM (inactive) | > 100 µM (inactive) | > 100 µM (inactive) | > 100 µM (inactive) | 56.2 µM (inactive) | > 100 µM (inactive) | > 100 µM (inactive) | > 100 µM (inactive)
Sc1nnc(-c2ccccc2Nc2ccccc2-c2nnc(S)n2-c2ccccc2)n1-c1ccccc1 | – | 31.3 µM (inactive) | 32.5 µM (inactive) | 34.8 µM (inactive) | 17.8 µM (inactive) | – | 16.4 µM (inactive) | 51.6 µM (inactive) | 40.8 µM (inactive) | 72.6 µM (inactive) | 60.3 µM (inactive) | 43.1 µM (inactive) | 27 µM (inactive) | 23.7 µM (inactive) | 46.9 µM (inactive) | 37.5 µM (inactive) | 37 µM (inactive) | 30.1 µM (inactive) | 28.1 µM (inactive)
CC(C)(O)/C=C\P(C)(=O)c1ccccc1 (centres undefined) | – | > 100 µM (inactive) | – | > 100 µM (inactive) | > 100 µM (inactive) | > 100 µM (inactive) | > 100 µM (inactive) | > 100 µM (inactive) | > 100 µM (inactive) | > 100 µM (inactive) | > 100 µM (inactive) | > 100 µM (inactive) | > 100 µM (inactive) | > 100 µM (inactive) | > 100 µM (inactive) | > 100 µM (inactive) | > 100 µM (inactive) | > 100 µM (inactive) | –
N#C[BH2-][n+]1ccc(C(=O)NNC(c2ccccc2)C(F)(F)F)cc1 (centres undefined) | – | > 100 µM (inactive) | > 100 µM (inactive) | > 100 µM (inactive) | 1 µM (active) | – | > 100 µM (inactive) | > 100 µM (inactive) | > 100 µM (inactive) | > 100 µM (inactive) | > 100 µM (inactive) | > 100 µM (inactive) | > 100 µM (inactive) | > 100 µM (inactive) | > 100 µM (inactive) | > 100 µM (inactive) | > 100 µM (inactive) | > 100 µM (inactive) | > 100 µM (inactive)
c1ccc(-c2nc3ccccc3n3nnnc23)cc1 | > 100 µM (inactive) | – | > 100 µM (inactive) | > 100 µM (inactive) | > 100 µM (inactive) | – | > 100 µM (inactive) | > 100 µM (inactive) | > 100 µM (inactive) | – | > 100 µM (inactive) | – | > 100 µM (inactive) | > 100 µM (inactive) | 75.7 µM (inactive) | – | > 100 µM (inactive) | > 100 µM (inactive) | > 100 µM (inactive)
CCOC(=O)c1c(N2CCCC2)nsc1Nc1ccc(F)cc1 | 40 µM (inactive) | 37.5 µM (inactive) | 28.1 µM (inactive) | 48.5 µM (inactive) | 28.7 µM (inactive) | 40.9 µM (inactive) | 55 µM (inactive) | 42.2 µM (inactive) | 48.8 µM (inactive) | 41.4 µM (inactive) | 20.4 µM (inactive) | 60 µM (inactive) | 19.2 µM (inactive) | 18 µM (inactive) | > 100 µM (inactive) | – | 45.7 µM (inactive) | 41.9 µM (inactive) | –
CCc1cc2c(cc1C(=O)CCC(=O)O)CC1(C2)Cc2cc(CC)c(C(=O)CCC(=O)O)cc2C1 | > 100 µM (inactive) | > 100 µM (inactive) | 32.2 µM (inactive) | > 100 µM (inactive) | > 100 µM (inactive) | > 100 µM (inactive) | > 100 µM (inactive) | > 100 µM (inactive) | > 100 µM (inactive) | > 100 µM (inactive) | > 100 µM (inactive) | > 100 µM (inactive) | 99.8 µM (inactive) | > 100 µM (inactive) | > 100 µM (inactive) | 50.5 µM (inactive) | – | > 100 µM (inactive) | –
COCCOC(=O)C1=C(O)c2ccccc2S(=O)(=O)N1C | > 100 µM (inactive) | > 100 µM (inactive) | > 100 µM (inactive) | > 100 µM (inactive) | > 100 µM (inactive) | > 100 µM (inactive) | > 100 µM (inactive) | > 100 µM (inactive) | > 100 µM (inactive) | > 100 µM (inactive) | > 100 µM (inactive) | > 100 µM (inactive) | > 100 µM (inactive) | > 100 µM (inactive) | > 100 µM (inactive) | 12.5 µM (inactive) | > 100 µM (inactive) | > 100 µM (inactive) | –
CSc1nncc(-c2cc3c(c(SC)n2)CCCC3)n1 | > 100 µM (inactive) | 61.5 µM (inactive) | > 100 µM (inactive) | > 100 µM (inactive) | – | – | – | > 100 µM (inactive) | > 100 µM (inactive) | 54.8 µM (inactive) | > 100 µM (inactive) | > 100 µM (inactive) | > 100 µM (inactive) | > 100 µM (inactive) | > 100 µM (inactive) | 60.7 µM (inactive) | > 100 µM (inactive) | > 100 µM (inactive) | > 100 µM (inactive)
COCOc1ccc(C(=O)Oc2cccc3c2OC(C)(C)O3)c(OCOC)c1 | > 100 µM (inactive) | > 100 µM (inactive) | 22.1 µM (inactive) | > 100 µM (inactive) | > 100 µM (inactive) | 31.3 µM (inactive) | > 100 µM (inactive) | 11.9 µM (inactive) | 89.1 µM (inactive) | > 100 µM (inactive) | – | > 100 µM (inactive) | – | 54.8 µM (inactive) | – | 74.5 µM (inactive) | – | 27.9 µM (inactive) | –
C=CC1(C)/C(=N\O)C(C)(CC)C(=O)N1O (centres undefined) | > 100 µM (inactive) | > 100 µM (inactive) | > 100 µM (inactive) | > 100 µM (inactive) | > 100 µM (inactive) | – | > 100 µM (inactive) | > 100 µM (inactive) | > 100 µM (inactive) | > 100 µM (inactive) | – | > 100 µM (inactive) | > 100 µM (inactive) | > 100 µM (inactive) | > 100 µM (inactive) | > 100 µM (inactive) | > 100 µM (inactive) | > 100 µM (inactive) | –
COc1ccc(N[C@H](C[S+]([O-])c2ccc(C)cc2)c2ccc(F)cc2)cc1 (some centres undefined) | – | > 100 µM (inactive) | > 100 µM (inactive) | > 100 µM (inactive) | – | – | < 0.01 µM (active) | > 100 µM (inactive) | 64.3 µM (inactive) | > 100 µM (inactive) | 82.4 µM (inactive) | 41.8 µM (inactive) | > 100 µM (inactive) | 12.9 µM (inactive) | 35.8 µM (inactive) | 27.2 µM (inactive) | – | 44.5 µM (inactive) | > 100 µM (inactive)
